Measurements as given in patent publication US20260265301A1, “LONG-ACTING K-OPIOID RECEPTOR AGONIST” (CHENGDU AODA BIOTECHNOLOGY CO., LTD, priority 2023, published 2026).
Where a SMILES comes first, the peptide text is derived from it. Bridges are numbered along the chain shown (N, C = ends). Roman numbers before positions name the chains, in order. [ ]: non-standard residue; d: D form. The star is where a group is joined. X1 = O=C(O)CCCCCCCCCCCCCCCCC(=O)N[C@@H](CCC(=O)NCCOCCOCCOCCOCC(=O)*)C(=O)O; Api = NC1(C(=O)O)CCNCC1

Biological target: T1, human κ opioid receptor (OPRK1) (Homo sapiens, UniProt P41145)
T1 construct: expressed in transfected cells; host or cells: CHO-K1
Experiment: Agonist activity: inhibition of forskolin-stimulated cAMP release (HTRF) in CHO-K1 cells stably expressing opioid receptors
Format: cell-based
Details: CHO-K1 cell line stably expressing opioid receptors; forskolin-stimulated cAMP, HTRF
Source text: Gi-coupled human κ opioid receptor (OPRK1), upon stimulation with its specific opioid receptor agonists, can inhibit the intracellular adenylate cyclase pathway, and decrease cAMP levels. Forskolin can stimulate cAMP release in cell lines highly expressing opioid receptors. By stimulating cell lines stably transfected with opioid receptors, the inhibitory effect of a test compound on forskolin-stimulated cAMP release can be measured to determine the activity of the compound. The relative light units (RLU) from the cells after stimulation with different doses were measured via the homogeneous time-resolved fluorescence (HTRF) technique, and the EC50 of the agonist was subsequently calculated. This activity determination method is a currently commonly used method for determining the activities of opioid receptor agonists at home and abroad.
A CHO-K1 cell line stably expressing opioid receptors was used. Stably transfected cells were stimulated with various concentrations of agonists (under the stimulation of a certain concentration of forskolin). The relative light units from the cells after stimulation with different doses were measured, from which the EC50 value of the agonist was subsequently obtained by calculation.

T1 sequence (P41145 whole entry): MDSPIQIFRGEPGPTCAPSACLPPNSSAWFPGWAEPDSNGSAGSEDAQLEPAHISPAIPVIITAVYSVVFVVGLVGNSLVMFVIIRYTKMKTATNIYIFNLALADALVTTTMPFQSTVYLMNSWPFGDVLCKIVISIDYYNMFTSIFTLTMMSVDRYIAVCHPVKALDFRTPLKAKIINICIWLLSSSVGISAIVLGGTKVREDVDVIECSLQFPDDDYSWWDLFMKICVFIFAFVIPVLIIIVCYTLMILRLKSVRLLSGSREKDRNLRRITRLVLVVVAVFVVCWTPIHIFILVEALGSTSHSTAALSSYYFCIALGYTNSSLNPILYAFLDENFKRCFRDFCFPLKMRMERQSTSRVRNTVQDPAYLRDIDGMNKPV

| Compound | EC50 [nM] |
| --- | --- |
| CC(C)C[C@@H](NC(=O)[C@@H](Cc1ccccc1)NC(=O)[C@H](N)Cc1ccccc1)C(=O)N[C@H](CCCCN)C(=O)N1CCC(N)(C(=O)O)CC1 [Difelikefalin, reference compound] | 0.653 |

Same assay, conditions: relative to Difelikefalin = 100%

| Compound | Relative Activity % [%] |
| --- | --- |
| CCOc1ccc(C[C@@H](NC(=O)[C@H](N)Cc2ccccc2)C(=O)N[C@H](CC2CC2)C(=O)N[C@H](CCCCN)C(=O)N2CCC(N)(C(=O)NCCOCCOCC(=O)N[C@@H](CCCCNC(=O)COCCOCCOCCOCCNC(=O)CC[C@H](NC(=O)CCCCCCCCCCCCCCCCC(=O)O)C(=O)O)C(N)=O)CC2)cc1 [Compound 12, D-Phe-D-Tyr(Et)-D-Cyclopropylalanine-D-Lys-4-aminopiperidine-4-carboxamide-AEEA-Lys(PEG4CH2CO-γGlu-octadecanedioic acid)-NH2] | 15.2 |
| CC(C)C[C@@H](NC(=O)[C@@H](Cc1ccc(Cl)cc1)NC(=O)[C@H](N)Cc1ccccc1)C(=O)N[C@H](CCCCN)C(=O)N1CCC(N)(C(=O)NCCOCCOCC(=O)N[C@@H](CCCCNC(=O)COCCOCCOCCOCCNC(=O)CC[C@H](NC(=O)CCCCCCCCCCCCCCCCC(=O)O)C(=O)O)C(N)=O)CC1 [Compound 6, D-Phe-D-Phe(4-Cl)-D-Leu-D-Lys-4-aminopiperidine-4-carboxamide-AEEA-Lys(PEG4CH2CO-γGlu-octadecanedioic acid)-NH2] | 12.2 |
| COc1ccc(C[C@@H](NC(=O)[C@H](N)Cc2ccccc2)C(=O)N[C@H](CC(C)C)C(=O)N[C@H](CCCCN)C(=O)N2CCC(N)(C(=O)NCCOCCOCC(=O)N[C@@H](CCCCNC(=O)COCCOCCOCCOCCNC(=O)CC[C@H](NC(=O)CCCCCCCCCCCCCCCCC(=O)O)C(=O)O)C(N)=O)CC2)cc1 [Compound 5, D-Phe-D-Tyr(Me)-D-Leu-D-Lys-4-aminopiperidine-4-carboxamide-AEEA-Lys(PEG4CH2CO-γGlu-octadecanedioic acid)-NH2] | 13.6 |
| CCOc1ccc(C[C@@H](NC(=O)[C@H](N)Cc2ccccc2)C(=O)N[C@H](CC(C)C)C(=O)N[C@H](CCCCN)C(=O)N2CCC(N)(C(=O)N[C@@H](CCCCNC(=O)COCCOCCOCCOCCNC(=O)CC[C@H](NC(=O)CCCCCCCCCCCCCCCCC(=O)O)C(=O)O)C(N)=O)CC2)cc1 [Compound 1, D-Phe-D-Tyr(Et)-D-Leu-D-Lys-4-aminopiperidine-4-carboxamide-Lys(PEG4CH2CO-γGlu-octadecanedioic acid)-NH2] | 15.6 |
| CCOc1ccc(C[C@@H](NC(=O)[C@H](N)Cc2ccccc2)C(=O)N[C@H](CC(C)C)C(=O)N[C@H](CCCCN)C(=O)N2CCC(N)(C(=O)NCCOCCOCC(=O)N[C@@H](CCCCNC(=O)COCCOCCOCCOCCOCCNC(=O)CC[C@H](NC(=O)CCCCCCCCCCCCCCCCC(=O)O)C(=O)O)C(N)=O)CC2)cc1 [Compound 9, D-Phe-D-Tyr(Et)-D-Leu-D-Lys-4-aminopiperidine-4-carboxamide-AEEA-Lys(PEG5CH2CO-γGlu-octadecanedioic acid)-NH2] | 16.4 |
| CCOc1ccc(C[C@@H](NC(=O)[C@H](N)Cc2ccccc2)C(=O)N[C@H](CC(C)C)C(=O)N[C@H](CCCCN)C(=O)N2CCC(N)(C(=O)NCCOCCOCC(=O)N[C@@H](CCCCNC(=O)COCCOCCOCCNC(=O)CC[C@H](NC(=O)CCCCCCCCCCCCCCCCC(=O)O)C(=O)O)C(N)=O)CC2)cc1 [Compound 8, D-Phe-D-Tyr(Et)-D-Leu-D-Lys-4-aminopiperidine-4-carboxamide-AEEA-Lys(PEG3CH2CO-γGlu-octadecanedioic acid)-NH2] | 17.7 |
| CCOc1ccc(C[C@@H](NC(=O)[C@H](N)Cc2ccccc2)C(=O)N[C@H](CC(C)C)C(=O)N[C@H](CCCCN)C(=O)N2CCC(N)(C(=O)NCC(=O)NCC(=O)N[C@@H](CCCCNC(=O)COCCOCCOCCOCCNC(=O)CC[C@H](NC(=O)CCCCCCCCCCCCCCCCC(=O)O)C(=O)O)C(N)=O)CC2)cc1 [Compound 11, D-Phe-D-Tyr(Et)-D-Leu-D-Lys-4-aminopiperidine-4-carboxamide-Gly-Gly-Lys(PEG4CH2CO-γGlu-octadecanedioic acid)-NH2] (I: H-[Api]GGK(X1)-NH2 / II: H-[dF][dY](Et)[dL][dK]; amide I:1-II:C; N-terminus assumed) | 16.9 |
| CCOc1ccc(C[C@@H](NC(=O)[C@H](N)Cc2ccccc2)C(=O)N[C@H](CC(C)C)C(=O)N[C@H](CCCCN)C(=O)N2CCC(N)(C(=O)NCCOCCOCC(=O)N[C@@H](CCCCNC(=O)COCCOCCOCCOCCNC(=O)CC[C@H](NC(=O)CCCCCCCCCCCCCCCCC(=O)O)C(=O)O)C(N)=O)CC2)cc1 [Compound 3, D-Phe-D-Tyr(Et)-D-Leu-D-Lys-4-aminopiperidine-4-carboxamide-AEEA-Lys(PEG4CH2CO-γGlu-octadecanedioic acid)-NH2] | 23.8 |
| CCOc1ccc(C[C@@H](NC(=O)[C@H](N)Cc2ccccc2)C(=O)N[C@H](CC(C)C)C(=O)N[C@H](CCCCN)C(=O)N2CCC(N)(C(=O)NCC(=O)N[C@@H](CCCCNC(=O)COCCOCCOCCOCCNC(=O)CC[C@H](NC(=O)CCCCCCCCCCCCCCCCC(=O)O)C(=O)O)C(N)=O)CC2)cc1 [Compound 10, D-Phe-D-Tyr(Et)-D-Leu-D-Lys-4-aminopiperidine-4-carboxamide-Gly-Lys(PEG4CH2CO-γGlu-octadecanedioic acid)-NH2] | 15.1 |
| CCOc1ccc(C[C@@H](NC(=O)[C@H](N)Cc2ccccc2)C(=O)N[C@H](CC(C)C)C(=O)N[C@H](CCCCN)C(=O)N2CCC(N)(C(=O)NCCOCC(=O)N[C@@H](CCCCNC(=O)COCCOCCOCCOCCNC(=O)CC[C@H](NC(=O)CCCCCCCCCCCCCCCCC(=O)O)C(=O)O)C(N)=O)CC2)cc1 [Compound 2, D-Phe-D-Tyr(Et)-D-Leu-D-Lys-4-aminopiperidine-4-carboxamide-PEG1CH2CO-Lys(PEG4CH2CO-γGlu-octadecanedioic acid)-NH2] | 20.7 |
| CC(C)C[C@@H](NC(=O)[C@@H](Cc1ccc(F)cc1)NC(=O)[C@H](N)Cc1ccccc1)C(=O)N[C@H](CCCCN)C(=O)N1CCC(N)(C(=O)NCCOCCOCC(=O)N[C@@H](CCCCNC(=O)COCCOCCOCCOCCNC(=O)CC[C@H](NC(=O)CCCCCCCCCCCCCCCCC(=O)O)C(=O)O)C(N)=O)CC1 [Compound 7, D-Phe-D-Phe(4-F)-D-Leu-D-Lys-4-aminopiperidine-4-carboxamide-AEEA-Lys(PEG4CH2CO-γGlu-octadecanedioic acid)-NH2] | 10.5 |
| CCOc1ccc(C[C@@H](NC(=O)[C@H](N)Cc2ccccc2)C(=O)N[C@H](CC(C)C)C(=O)N[C@H](CCCCN)C(=O)N2CCC(N)(C(=O)NCCOCCOCCOCCOCC(=O)N[C@@H](CCCCNC(=O)COCCOCCOCCOCCNC(=O)CC[C@H](NC(=O)CCCCCCCCCCCCCCCCC(=O)O)C(=O)O)C(N)=O)CC2)cc1 [Compound 4, D-Phe-D-Tyr(Et)-D-Leu-D-Lys-4-aminopiperidine-4-carboxamide-PEG4CH2CO-Lys(PEG4CH2CO-γGlu-octadecanedioic acid)-NH2] | 17.2 |

Tested on: not listed separately
Experiment: Preliminary pharmacokinetic properties after subcutaneous administration
Format: in vivo
Details: cynomolgus monkey; male Macaca fascicularis, subcutaneous (SC), 0.1 mg/kg, plasma, LC-MS; read-out: t½ (converted)
Description: The compound with the best activity was selected for determination of its preliminary pharmacokinetic properties. Two male Macaca fascicularis were used as experimental animals. A subcutaneous administration was performed at a dose of 0.1 mg/kg. Venous blood samples were collected before administration (0 h) and at 1 h, 2 h, 3 h, 4 h, 8 h, 12 h, 18 h, 24 h, 48 h, 96 h, 144 h, and 168 h post-administration. Plasma samples were separated by centrifugation. The plasma concentration of the compound in the plasma samples was determined using liquid chromatography-mass spectrometry.

| Compound | half-life [h] |
| --- | --- |
| CCOc1ccc(C[C@@H](NC(=O)[C@H](N)Cc2ccccc2)C(=O)N[C@H](CC(C)C)C(=O)N[C@H](CCCCN)C(=O)N2CCC(N)(C(=O)NCCOCCOCC(=O)N[C@@H](CCCCNC(=O)COCCOCCOCCOCCNC(=O)CC[C@H](NC(=O)CCCCCCCCCCCCCCCCC(=O)O)C(=O)O)C(N)=O)CC2)cc1 [Compound 3, D-Phe-D-Tyr(Et)-D-Leu-D-Lys-4-aminopiperidine-4-carboxamide-AEEA-Lys(PEG4CH2CO-γGlu-octadecanedioic acid)-NH2] | 55.1 |
